Data as given in US20250129074A1, “CHIMERIC COMPOUND FOR TARGETED DEGRADATION OF ANDROGEN RECEPTOR PROTEIN, PREPARATION METHOD THEREFOR, AND MEDICAL USE THEREOF” (Jiangsu Hengrui Pharmaceuticals Co., Ltd., priority 2021, published 2025).

Assays:
[1] = system: LNCap-FGC xenograft tumors; test: Pharmacodynamic testing: LNCap-FGC subcutaneous xenograft in castrated CB17-SCID mice; assay type: in vivo; conditions: i.g.; for Mean tumor volume D 21 / Number of remaining animals/group / TGI D 21: qd/21 d
Text: To evaluate the inhibition of the growth of castration-resistant prostate cancer LNCap-FGC subcutaneous xenograft tumors in male CB17-SCID mice by compounds of the present disclosure.
Test animals: CB17-SCID male mice, purchased from Beijing Vital River Laboratory Animal Technology Co., Ltd. (certificate No. SCXK(Beijing)2016-0006; animal certification No. 110011220107542683), weighing about 20.54-26.72 g on purchase. Housing conditions: 5 animals/cage, a 12/12-hour light/dark cycle, a constant temperature of 23±1° C. with humidity at 50 to 60%, ad libitum access to food and water.
0.2 mL (10×10^6 cells+Matrigel) of LNCaP FGC cells (Matrigel was added, in a 1:1 ratio by volume) in the logarithmic growth phase was subcutaneously inoculated into the right upper limb of each mouse. When the mean tumor volume reached 77 mm^3, male mice with stable tumor growth were selected and subjected to orchiectomy followed by three days of analgesic care. When the mean tumor volume reached 172 mm^3, grouping and administration were started. The day of grouping was defined as DO, and intragastric administration was started and performed once a day for 21 days. The 21th day after administration was defined as D21 (Table 7). For tumor-bearing mice, the tumor volume was measured with a vernier caliper and the body weight was measured with a balance twice a week, and data were recorded.
All data were plotted and statistically analyzed using Excel and GraphPad Prism 8 software.
The calculation formula for tumor volume (V) was: V=½×a×b^2, where a and b represent length and width, respectively.
Relative tumor proliferation rate T/C(%)=(T-T0)/(C-C0)×100 (%), where T and C represent the tumor volumes of a treatment group and the control group at the end of the experiment; T0 and C0 represent the tumor volumes at the beginning of the experiment.

androgen receptor (AR) = target: T1, androgen receptor (AR) (Homo sapiens, UniProt P10275, T878A); test: Degradation activity on androgen receptor in LNCaP cells (AR ELISA); assay type: cell-based; conditions: 0.1 nM R1881, 24 hours; for DC50: read-out: LNCaP DC50; for Dmax: read-out: Max (maximum AR degradation rate)
T1 construct: host or cells: LNCaP human prostate cancer cells
T1 sequence (P10275 1-920 T878A): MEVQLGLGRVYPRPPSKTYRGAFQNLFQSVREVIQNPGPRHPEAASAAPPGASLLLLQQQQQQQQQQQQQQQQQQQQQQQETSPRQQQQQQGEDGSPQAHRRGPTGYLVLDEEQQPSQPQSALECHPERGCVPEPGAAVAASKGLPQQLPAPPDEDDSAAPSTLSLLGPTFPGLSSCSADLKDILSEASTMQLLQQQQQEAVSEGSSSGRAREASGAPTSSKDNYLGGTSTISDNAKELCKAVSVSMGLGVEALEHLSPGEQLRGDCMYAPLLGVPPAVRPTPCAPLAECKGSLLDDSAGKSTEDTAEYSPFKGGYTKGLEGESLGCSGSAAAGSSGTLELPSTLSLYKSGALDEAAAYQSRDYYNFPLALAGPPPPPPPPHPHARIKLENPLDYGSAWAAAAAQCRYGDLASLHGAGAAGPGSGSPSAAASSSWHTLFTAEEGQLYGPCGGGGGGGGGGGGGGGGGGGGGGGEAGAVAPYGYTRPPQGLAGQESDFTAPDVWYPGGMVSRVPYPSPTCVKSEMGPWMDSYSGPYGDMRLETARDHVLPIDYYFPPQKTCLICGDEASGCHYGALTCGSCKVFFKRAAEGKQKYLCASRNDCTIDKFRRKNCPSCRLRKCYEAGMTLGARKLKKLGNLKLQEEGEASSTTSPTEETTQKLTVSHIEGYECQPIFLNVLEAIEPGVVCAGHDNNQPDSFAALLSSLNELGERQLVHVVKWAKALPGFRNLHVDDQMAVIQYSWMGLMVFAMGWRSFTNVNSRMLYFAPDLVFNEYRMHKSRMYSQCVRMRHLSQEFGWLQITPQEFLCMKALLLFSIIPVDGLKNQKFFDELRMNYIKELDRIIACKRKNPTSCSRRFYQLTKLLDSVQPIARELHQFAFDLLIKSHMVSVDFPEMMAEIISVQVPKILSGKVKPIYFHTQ
Outline: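 LNCaP cells were treated with compound, with a 0.5% DMSO blank control, for 24 h at 37 °C, 5% CO2. Cells were then lysed and the lysate clarified. AR protein level was read by ELISA.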

[2] = Pharmacokinetic evaluation in SD rats; conditions: both sexes, rat, in vivo, po, i.g., 2.0 mg/kg; for Vd/F: read-out: Apparent distribution volume Vz/F; for AUC(0-t): read-out: Area under curve AUC0-t; for CL/F: read-out: Clearance rate CL/F; for half-life: read-out: Half-life T½ (converted); for Cmax: read-out: Plasma concentration Cmax
Protocol: SD rats were used as test animals.
32 SD rats, provided by Vital River Laboratory Animal Co., Ltd., with an equal number of males and females, were evenly divided into 8 groups. The animals were fasted overnight and then intragastrically dosed.
The dose administered was 2.0 mg/kg, and the volume was 10.0 mL/kg.
The procedure starting from the blood collection to the centrifugation was performed under ice-bath conditions. Access to food was given 2 hours after administration.

LNCaP cells = test: Inhibition of LNCaP proliferation (CellTiter-Glo); assay type: cell-based; conditions: Homo sapiens, 144 h, 0.1 nM R1881, six days; for Emax: read-out: Max (maximum proliferation inhibition rate)
Protocol: The plate was incubated in a 37° C., 5% CO2 cell incubator for three days. […] A blank control cell well containing 0.5% DMSO and a cell-free vehicle control well were set up. The plate was incubated in a 37° C., 5% CO2 cell incubator for six days.

Row | SMILES | DC50 (androgen receptor (AR)) [nM] | Dmax (androgen receptor (AR)) [%] | Vd/F [2] [L/kg] | AUC(0-t) [2] [ng·h/mL] | CL/F [2] [mL/min/kg] | half-life [2] [h] | Cmax [2] [ng/mL] | IC50 (LNCaP cells) [nM] | Emax (LNCaP cells) [%] | also measured
1 | N#Cc1ccc(O[C@H]2CC[C@H](NC(=O)c3ccc(N4CCC(CN5CCN(c6cc7c(cc6F)C(=O)N(C6CCC(=O)NC6=O)C7=O)CC5)CC4)nn3)CC2)cc1Cl (stereo partly shown) [ARV-110, reference compound] | – | – | – | – | – | – | – | – | – | Mean tumor volume D 21 ([1]; 1 mpk): 789 mm^3; Number of remaining animals/group ([1]; 1 mpk): 8/8; TGI D 21 ([1]; 1 mpk): 57%; Mean tumor volume D 21 ([1]; 10 mpk): 293 mm^3; Number of remaining animals/group ([1]; 10 mpk): 8/8; TGI D 21 ([1]; 10 mpk): 92%
2 | C[C@H]1CC2(CCN(c3ccc(C(=O)N4CCC(CN5CCN(c6cccc(NC7CCC(=O)NC7=O)c6)CC5)CC4)nc3)CC2)CN1c1ccc(C#N)c(Cl)c1 (stereo partly drawn) [Example 12, 2-Chloro-4-((3S)-8-(6-(4-((4-(3-((2,6-dioxopiperidin-3-yl)amino)phenyl)piperazin-1-yl)methyl)piperidine-1-carbonyl)pyridin-3-yl)-3-methyl-2,8-diazaspiro[4.5]decan-2-yl)benzonitrile] | 1.3 | 97 | 63.1 | 304 | 139 | 5.19 | 37.4 | 48 | 73 | –
3 | C[C@H]1CC2(CCN(c3ccc(C(=O)N4CCC5(CC4)CC(N4CCN(c6ccc(N7CCC(=O)NC7=O)cc6)CC4)C5)cc3)CC2)CN1c1ccc(C#N)c(Cl)c1 [Example 28, (S)-2-Chloro-4-(8-(4-(2-(4-(4-(2,4-dioxotetrahydropyrimidin-1(2H)-yl)phenyl)piperazin-1-yl)-7-azaspiro[3.5]nonane-7-carbonyl)phenyl)-3-methyl-2,8-diazaspiro[4.5]decan-2-yl)benzonitrile] | 5.8 | 97 | 66.6 | 315 | 108 | 7.17 | 25.5 | 17 | 61 | –
4 | C[C@H]1CC2(CCN(c3ccc(C(=O)N4CCC(CN5CCN(c6cccc(N[C@H]7CCC(=O)NC7=O)c6)CC5)CC4)cc3F)CC2)CN1c1ccc(C#N)c(Cl)c1 [Example 15-1, 2-Chloro-4-((S)-8-(4-(4-((4-(3-(((S)-2,6-dioxopiperidin-3-yl)amino)phenyl)piperazin-1-yl)methyl)piperidine-1-carbonyl)-2-fluorophenyl)-3-methyl-2,8-diazaspiro[4.5]decan-2-yl)benzonitrile] | – | – | – | – | – | – | – | – | – | effect on the body weight of the mice ([1]; 1.5, 5 and 15 mpk, once daily for 21 days): little effect; Mean tumor volume D 21 ([1]; 1.5 mpk): 255 mm^3; Number of remaining animals/group ([1]; 1.5 mpk): 8/8; TGI D 21 ([1]; 1.5 mpk): 94%; Mean tumor volume D 21 ([1]; 5 mpk): 188 mm^3; Number of remaining animals/group ([1]; 5 mpk): 8/8; TGI D 21 ([1]; 5 mpk): 99%; Mean tumor volume D 21 ([1]; 15 mpk): 117 mm^3; Number of remaining animals/group ([1]; 15 mpk): 8/8; TGI D 21 ([1]; 15 mpk): 104%
